# Literature values in patent publication US20200330379A1, “NON-ORAL CANNABINOID FORMULATION AND METHOD OF TREATMENT” (Navinta NV, Inc., priority 2019, published 2020).
# Details: limited by first-pass metabolism
compound,measurement,value
"CCCCCc1cc(O)c2c(c1)OC(C)(C)[C@@H]1CCC(C)=C[C@@H]21 [THC, (6aR,10aR)-6,6,9-trimethyl-3-pentyl-6a,7,8,10a-tetrahydro-6H-benzo[c]-chromen-1-ol]",Oral bioavailability,10% and 20
